# Where two headings read alike, the source gives them in different places.
# Experiments:
# [1] = test system: 24 strains of S. aureus (SA1-SA24); assay: Broth micro-dilution MIC against 24 strains of S. aureus; assay type: cell-based; conditions: for MIC: Staphylococcus aureus, read-out: Compound MIC
# Method: Compounds were tested for their anti-bacterial activity against 56 clinical isolates including 24 clinical isolates of methicillin resistant S. aureus (MRSA) and methicillin-susceptible S. aureus (MSSA), 8 strains of Enterococcus, 8 strains of Acinetobacter baumannii, 8 strains of Klebsiella pneumoniae, and 8 strains of Pseudomonas aeruginosa using a standard broth micro-dilution method as recommended by the Clinical and Laboratory Standard Institute (CLSI, M100, s23).
# HN18 HN19, and HN34 were tested by a broth micro-dilution method to determine their minimal inhibitory concentration (MIC) against 24 strains of S. aureus (SA1-SA24) (Table 2). […]. Furthermore, the results for HN18 and HN34 were consistent across four repeated experiments. […]
# [2] = test system: methicillin-resistant S. aureus clinical isolates (MRSA); S. aureus (K1902); assay: Plasmid curing at sub-inhibitory concentration; assay type: cell-based, Staphylococcus aureus
# Method: Plasmid curing was performed per Trevors (Trevors, 1986 Plasmid curing in bacteria. FEMS Microbiology, 32: 149-157). In brief, the clinical isolate was grown in the presence of HN18 and HN34 at the specified concentration for 18 h at 35° C. and then plated on Muller Hinton agar (MHA) plates to obtain isolated colonies. The isolated colonies were then replica plated onto MHA and MHA plates containing antibiotics. […] The percentage curing efficiency was expressed as the number of colonies with cured phenotype per 100 colonies tested. For plasmid extraction, 5 ml of an overnight culture of S. aureus strain was centrifuged and cells were subjected to 1 ml lysostaphin (20 μg/ml) for 1 hour at 35° C. prior to DNA extraction. Extraction of DNA was carried using QIAprep Spin Miniprep Kit (Qiagen) per manufacturer's instruction. DNA profile analysis was carried out by electrophoresis on 1.5% agarose gel.
# The methicillin-resistant S. aureus clinical isolates (MRSA) growing in the presence of sub-inhibitory concentrations of HN18 and HN34 were taken for the evaluation for the loss of plasmids as described above. A culture control without a curing agent was also maintained in the curing experiment to estimate the rate of spontaneous loss of plasmids under these conditions. HN18 and HN34 eliminated the plasmid mediated antibiotic resistance markers with varying curing efficiencies (Table 3). HN18 cured plasmids from SA1, SA2, SA7 and SA8 at frequency in the range of 13-100%. HN34 also cured plasmids from SA1, SA2, SA7 and SA8 strains with 30%-100% curing efficiency.
# Plasmid curing activity of HN18 and HN34 was also evaluated in S. aureus (K1902) which is known to harbor a 5 kb plasmid with a chloramphenicol resistance gene. Along with the KSA reference strain, the plasmid curing activity was repeated for SA1 and SA2 strains which are MRSA (Table 4).
# [3] = test system: S. aureus clinical isolates; assay: Synergistic effect with oxacillin (oxacillin MIC alone and in presence of SIC); assay type: cell-based, Staphylococcus aureus
# Method: The synergistic effect (interaction) of HN18 and HN34 with different antibiotics against S. aureus clinical isolates was studied. The oxacillin MIC values of 8 clinical isolates of Staphylococcus aureus were determined. The oxacillin MIC of the same isolates were also determined after they were exposed to SIC of HN18, HN34 (Table 5). […] Column 2 and 3 show the oxacillin MIC value of the same isolates in presence of SIC of HN18 and HN34 respectively.
# [4] = Table 3, isolate SA1, at SIC, lack of growth in presence of M, Ox (4 μg/ml)
# [5] = Table 3, isolate SA2, at SIC, lack of growth in presence of M, Ox (4 μg/ml)
# [6] = Table 3, isolate SA3, at SIC, lack of growth in presence of M, Ox (4 μg/ml)
# [7] = Table 3, isolate SA4, at SIC, lack of growth in presence of M, Ox (4 μg/ml)
# [8] = Table 3, isolate SA5, at SIC, lack of growth in presence of M, Ox (4 μg/ml)
# [9] = Table 3, isolate SA6, at SIC, lack of growth in presence of M, Ox (4 μg/ml)
# [10] = Table 3, isolate SA7, at SIC, lack of growth in presence of M, Ox (4 μg/ml)
# [11] = Table 3, isolate SA8, at SIC, lack of growth in presence of M, Ox (4 μg/ml)
smiles,measurement,setting,value
"Fc1ccc(C(C2=CNC3C=CC=CC23)C2=C3C=CC=CC3NC2)cc1F (stereo not drawn) [HN18, 3-((3,4-difluorophenyl)(2,7a-dihydro-1H-indol-3-yl)methyl)-3a,7a-dihydro-1H-indole]",Effect against the panel of S. aureus strains,"[1]; 24 strains SA1-SA24, broth micro-dilution",effective
same,MIC,"[1]; isolate SA1, experiment I",0.5 µg/mL
same,MIC,"[1]; isolate SA1, experiment II",1 µg/mL
same,MIC,"[1]; isolate SA1, experiment III",1 µg/mL
same,MIC,"[1]; isolate SA1, experiment IV",1 µg/mL
same,MIC,"[1]; isolate SA2, experiment I",1 µg/mL
same,MIC,"[1]; isolate SA2, experiment II",2 µg/mL
same,MIC,"[1]; isolate SA2, experiment III",2 µg/mL
same,MIC,"[1]; isolate SA2, experiment IV",2 µg/mL
same,MIC,"[1]; isolate SA3, experiment I",1 µg/mL
same,MIC,"[1]; isolate SA3, experiment II",2 µg/mL
same,MIC,"[1]; isolate SA3, experiment III",2 µg/mL
same,MIC,"[1]; isolate SA3, experiment IV",2 µg/mL
same,MIC,"[1]; isolate SA4, experiment I",1 µg/mL
same,MIC,"[1]; isolate SA4, experiment II",2 µg/mL
same,MIC,"[1]; isolate SA4, experiment III",1 µg/mL
same,MIC,"[1]; isolate SA4, experiment IV",2 µg/mL
same,MIC,"[1]; isolate SA5, experiment I",1 µg/mL
same,MIC,"[1]; isolate SA5, experiment II",1 µg/mL
same,MIC,"[1]; isolate SA5, experiment III",1 µg/mL
same,MIC,"[1]; isolate SA5, experiment IV",2 µg/mL
same,MIC,"[1]; isolate SA6, experiment I",1 µg/mL
same,MIC,"[1]; isolate SA6, experiment II",2 µg/mL
same,MIC,"[1]; isolate SA6, experiment III",2 µg/mL
same,MIC,"[1]; isolate SA6, experiment IV",2 µg/mL
same,MIC,"[1]; isolate SA7, experiment I",0.5 µg/mL
same,MIC,"[1]; isolate SA7, experiment II",1 µg/mL
same,MIC,"[1]; isolate SA7, experiment III",1 µg/mL
same,MIC,"[1]; isolate SA7, experiment IV",1 µg/mL
same,MIC,"[1]; isolate SA8, experiment I",1 µg/mL
same,MIC,"[1]; isolate SA8, experiment II",2 µg/mL
same,MIC,"[1]; isolate SA8, experiment III",2 µg/mL
same,MIC,"[1]; isolate SA8, experiment IV",2 µg/mL
same,MIC,"[1]; isolate SA9, experiment I",2 µg/mL
same,MIC,"[1]; isolate SA9, experiment II",2 µg/mL
same,MIC,"[1]; isolate SA10, experiment I",2 µg/mL
same,MIC,"[1]; isolate SA10, experiment II",2 µg/mL
same,MIC,"[1]; isolate SA11, experiment I",2 µg/mL
same,MIC,"[1]; isolate SA11, experiment II",2 µg/mL
same,MIC,"[1]; isolate SA12, experiment I",2 µg/mL
same,MIC,"[1]; isolate SA12, experiment II",2 µg/mL
same,MIC,"[1]; isolate SA13, experiment I",2 µg/mL
same,MIC,"[1]; isolate SA13, experiment II",2 µg/mL
same,MIC,"[1]; isolate SA14, experiment I",0.5 µg/mL
same,MIC,"[1]; isolate SA14, experiment II",0.5 µg/mL
same,MIC,"[1]; isolate SA15, experiment I",2 µg/mL
same,MIC,"[1]; isolate SA15, experiment II",2 µg/mL
same,MIC,"[1]; isolate SA16, experiment I",1 µg/mL
same,MIC,"[1]; isolate SA16, experiment II",2 µg/mL
same,MIC,"[1]; isolate SA17, experiment I",2 µg/mL
same,MIC,"[1]; isolate SA17, experiment II",2 µg/mL
same,MIC,"[1]; isolate SA18, experiment I",2 µg/mL
same,MIC,"[1]; isolate SA18, experiment II",2 µg/mL
same,MIC,"[1]; isolate SA19, experiment I",2 µg/mL
same,MIC,"[1]; isolate SA19, experiment II",2 µg/mL
same,MIC,"[1]; isolate SA20, experiment I",2 µg/mL
same,MIC,"[1]; isolate SA20, experiment II",2 µg/mL
same,MIC,"[1]; isolate SA21, experiment I",2 µg/mL
same,MIC,"[1]; isolate SA21, experiment II",2 µg/mL
same,MIC,"[1]; isolate SA22, experiment I",2 µg/mL
same,MIC,"[1]; isolate SA22, experiment II",2 µg/mL
same,MIC,"[1]; isolate SA23, experiment I",2 µg/mL
same,MIC,"[1]; isolate SA23, experiment II",2 µg/mL
same,MIC,"[1]; isolate SA24, experiment I",2 µg/mL
same,MIC,"[1]; isolate SA24, experiment II",2 µg/mL
same,Plasmid band in agarose gel of cured derivatives,"[2]; S. aureus K1902, FIG. 3",absent
same,Susceptibility of isolates after exposure to SIC,"[2]; SA1 and SA2 to oxacillin, KSA to chloramphenicol",became susceptible
same,Curing efficiency I,[2]; [4],0%
same,Curing efficiency II,[2]; [4],100%
same,Curing efficiency I,[2]; [5],100%
same,Curing efficiency II,[2]; [5],50%
same,Curing efficiency I,[2]; [6],0%
same,Curing efficiency II,[2]; [6],0%
same,Curing efficiency I,[2]; [7],100%
same,Curing efficiency II,[2]; [7],0%
same,Curing efficiency I,[2]; [8],0%
same,Curing efficiency II,[2]; [8],0%
same,Curing efficiency I,[2]; [9],0%
same,Curing efficiency II,[2]; [9],0%
same,Curing efficiency I,[2]; [10],23%
same,Curing efficiency II,[2]; [10],90%
same,Curing efficiency I,[2]; [11],13%
same,Curing efficiency II,[2]; [11],70%
same,Curing efficiency (%),"[2]; Table 4, KSA (S. aureus K1902), experiment I, lack of growth in presence of Cm (10 μg/ml)",36.6%
same,Curing efficiency (%),"[2]; Table 4, KSA (S. aureus K1902), experiment II, lack of growth in presence of Cm (10 μg/ml)",46.6%
same,Curing efficiency (%),"[2]; Table 4, isolate SA1, experiment I, lack of growth in presence of M, Ox (4 μg/ml)",63.3%
same,Curing efficiency (%),"[2]; Table 4, isolate SA2, experiment I, lack of growth in presence of M, Ox (4 μg/ml)",100%
same,Plasmid curing frequency / curing efficiency,"[2]; range over SA1, SA2, SA7 and SA8",13-100%
same,Synergistic activity in combination with oxacillin,"[3]; S. aureus clinical isolates, compound at SIC",decrease in the oxacillin MIC
same,Oxacillin MIC in presence of SIC of the compound (1 μg/ml),"[3]; isolate SA3, experiment I",0.5 µg/mL
same,Oxacillin MIC in presence of SIC of the compound (1 μg/ml),"[3]; isolate SA3, experiment II",0.5 µg/mL
same,Oxacillin MIC in presence of SIC of the compound (1 μg/ml),"[3]; isolate SA4, experiment I",0.5 µg/mL
same,Oxacillin MIC in presence of SIC of the compound (1 μg/ml),"[3]; isolate SA4, experiment II",1 µg/mL
same,Oxacillin MIC in presence of SIC of the compound (1 μg/ml),"[3]; isolate SA5, experiment I",0.03 µg/mL
same,Oxacillin MIC in presence of SIC of the compound (1 μg/ml),"[3]; isolate SA5, experiment II",0.03 µg/mL
same,Oxacillin MIC in presence of SIC of the compound (1 μg/ml),"[3]; isolate SA9, experiment I",2 µg/mL
same,Oxacillin MIC in presence of SIC of the compound (1 μg/ml),"[3]; isolate SA9, experiment II",4 µg/mL
same,Oxacillin MIC in presence of SIC of the compound (1 μg/ml),"[3]; isolate SA10, experiment I",<0.03 µg/mL
same,Oxacillin MIC in presence of SIC of the compound (1 μg/ml),"[3]; isolate SA10, experiment II",<0.03 µg/mL
same,Oxacillin MIC in presence of SIC of the compound (1 μg/ml),"[3]; isolate SA11, experiment I",<0.03 µg/mL
same,Oxacillin MIC in presence of SIC of the compound (1 μg/ml),"[3]; isolate SA11, experiment II",<0.03 µg/mL
same,Oxacillin MIC in presence of SIC of the compound (1 μg/ml),"[3]; isolate SA15, experiment I",<0.03 µg/mL
same,Oxacillin MIC in presence of SIC of the compound (1 μg/ml),"[3]; isolate SA15, experiment II",<0.03 µg/mL
same,Oxacillin MIC in presence of SIC of the compound (1 μg/ml),"[3]; isolate SA18, experiment I",<0.03 µg/mL
same,Oxacillin MIC in presence of SIC of the compound (1 μg/ml),"[3]; isolate SA18, experiment II",<0.03 µg/mL

# Reference: patent US20200283384A1, “ANTIBACTERIAL COMPOUNDS AND METHODS OF USE THEREOF” (Wayne State University, priority 2016, published 2020)
